Where two headings read alike, the source gives them in different places.
What was measured:
Format in all cases: cell-based
[1] = system: BALL-1; test: CellTiterGlo viability, B-ALL cell line; conditions: single agent, 72 h
Protocol: (§1) In addition, all media contained penicillin (100 IU/ml), streptomycin (100 μg/ml) and L-glutamine (2 mM). Cell lines were cultured at 37° C. in a humidified atmosphere containing 5% CO2 and expanded in T-150 flasks. In all cases cells were thawed from frozen stocks, expanded through ≥1 passage using appropriate dilutions, counted and assessed for viability using a CASY cell counter prior to plating 150 ul/well at the densities indicated in Table 9 into 96-well plates. All cell lines were determined to be free of mycoplasma contamination in-house.
(§2) Stock solutions of compounds were prepared at a concentration of 5 mM in DMSO and stored at −20° C. In order to analyse the activity of the compounds as single agents, cells were seeded and treated with nine 2-fold serial dilutions of each compound dispensed individually directly into the cell assay plates. Effects of the compounds on cell viability were assessed after 3 days of incubation at 37° C./5% CO2 by quantification of cellular ATP levels using CellTiterGlo at 75 μL reagent/well. All the conditions were tested in triplicates. Luminescence was quantified on a multipurpose plate reader. Single agent IC50s were calculated using standard four-parametric curve fitting. IC50 is defined as the compound concentration at which the CTG signal is reduced to 50% of that measured for the vehicle (DMSO) control.
(§3) In order to analyse the activity of the compounds in combination, cells were seeded and treated with seven or eight 3.16-fold serial dilutions of each compound dispensed, either individually or in all possible permutations in a checkerboard fashion, directly into the cell assay plates as indicated in FIG. 1. Effects of the single agents as well as their checkerboard combinations on cell viability were assessed after 3 days of incubation at 37° C./5% CO2 by quantification of cellular ATP levels using CellTiterGlo at 75 μL reagent/well. For B-ALL cell lines, two independent experiments, each one performed in duplicates, were performed. For T-ALL cell lines, one experiment performed in triplicate was performed. Luminescence was quantified on a multipurpose plate reader.
(§4) Potential synergistic interactions between compound combinations were assessed using the Excess Inhibition 2D matrix according to the Loewe additivity model and are reported as Synergy Score (Lehar et al, Nat Biotechnol. 2009 July; 27(7): 659-666). All calculations were performed using Chalice TM Bioinformatics Software available in Horizon website. The doubling time indicated in Table 9 is the mean of the doubling time obtained in the different passages (in T-150 flasks) performed from the thawing of the cells to their seeding in the 96-well plates.

[2] = system: TOM-1; test: CellTiterGlo viability, B-ALL cell line; conditions: single agent, 72 h
Protocol: as §1, §2, §3, §4

[3] = system: TANOUE; test: CellTiterGlo viability, B-ALL cell line; conditions: single agent, 72 h
Protocol: as §1, §2, §3, §4

[4] = system: JM1; test: CellTiterGlo viability, DLBCL cell line; conditions: single agent, 2 days; for IC50: read-out: Abs IC50
Protocol: (§6) In addition, all media contained penicillin (100 IU/ml), streptomycin (100 μg/ml) and L-glutamine (2 mM). Unless otherwise mentioned, culture media and supplements were from Amimed/Bioconcept (Allschwil, Switzerland).
(§7) Cell lines were cultured at 37° C. in a humidified atmosphere containing 5% CO2 and expanded in T-75 flasks. In all cases cells were thawed from frozen stocks, expanded through ≥1 passage using appropriate dilutions, counted and assessed for viability using a CASY cell counter (Omni Life Science, Bremen, Germany) prior to plating 25 ul/well at the densities indicated in Table 1 into 384-well plates (Corning). All cell lines were determined to be free of mycoplasma contamination by PCR assay performed at Idexx Radii (Columbia, Mo., USA) and misidentification ruled out by assessment of a panel of 48 Small Nucleotide Polymorphisms (SNPs) at Asuragen (Austin, Tex., USA) or in-house.
(§8) Stock solutions of compounds were prepared at a concentration of 10 mM in DMSO (Sigma) and stored at −20° C. Where necessary to afford a full dose-response curve, the stock solutions were pre-diluted in DMSO to 1′000-fold the desired start concentration (see Table 2). On the day after cell seeding, eight 2.5-fold serial dilutions of each compound were dispensed, either individually or in all possible permutations in a checkerboard fashion, directly into the cell assay plates using a non-contact 300D Digital Dispenser (ILCAN, Mannedorf, Switzerland) as outlined in FIG. 4. The final concentration of DMSO was 0.2% in all wells.
(§9) Effects of the single agents as well as their checkerboard combinations on cell viability were assessed after 2 days of incubation at 37° C./5% CO2 by quantification of cellular ATP levels using CellTiterGlo (Promega, Madison, Wis., USA) at 25 μL reagent/well and n=2 replicate plates per condition. Luminescence was quantified on a M1000 multipurpose platereader (ILCAN, Mannedorf, Switzerland). The number/viability of cells at time of compound addition was likewise assessed and used to assess the degree of the population doubling time of a particular cell line.
(§10) Single agent IC50s were calculated using standard four-parametric curve fitting. […] All calculations were performed using the Combination Analysis Module in-house software. IC50 are defined as the compound concentration at which the CTG signal is reduced to 50% of that measured for the vehicle (DMSO) control.

[5] = system: DOHH-2; test: CellTiterGlo viability, DLBCL cell line; conditions: single agent, 2 days; for IC50: read-out: Abs IC50
Protocol: as §6, §7, §8, §9, §10

[6] = system: OCI-LY-19; test: CellTiterGlo viability, DLBCL cell line; conditions: single agent, 2 days; for IC50: read-out: Abs IC50
Protocol: as §6
(§11) Cell lines were cultured at 37° C. in a humidified atmosphere containing 5% CO2 and expanded in T-75 flasks. In all cases cells were thawed from frozen stocks, expanded through ≥1 passage using appropriate dilutions, counted and assessed for viability using a CASY cell counter (Omni Life Science, Bremen, Germany) prior to plating 25 ul/well at the densities indicated in Table 1 into 384-well plates (Corning).
as §8, §9
(§12) Single agent IC50s were calculated using standard four-parametric curve fitting. […] IC50 are defined as the compound concentration at which the CTG signal is reduced to 50% of that measured for the vehicle (DMSO) control.

[7] = system: SIMA; test: CellTiterGlo viability, neuroblastoma cell line; conditions: single agent, 3 days
Protocol: (§5) In addition, all media contained penicillin (100 IU/ml), streptomycin (100 μg/ml) and L-glutamine (2 mM). […] In all cases cells were thawed from frozen stocks, expanded through ≥1 passage using appropriate dilutions, counted and assessed for viability using a CASY cell counter prior to plating 150 ul/well at the densities indicated in Table 6 into 96-well plates. All cell lines were determined to be free of mycoplasma contamination in-house. Stock solutions of compounds were prepared at a concentration of 5 mM in DMSO and stored at −20° C. In order to analyse the activity of the compounds as single agents, cells were seeded and treated with nine 3.16-fold serial dilutions of each compound dispensed individually directly into the cell assay plates. […] Two independent experiments, each one performed in duplicates were performed. […]. Luminescence was quantified on a multipurpose platereader. Single agent IC50s were calculated using standard four-parametric curve fitting. […] Identical experiments were performed to assess potential synergistic interactions between compound combinations. […] All calculations were performed using Chalice TM Bioinformatics Software.

[8] = system: NBL-S; test: CellTiterGlo viability, neuroblastoma cell line; conditions: single agent, 3 days
Protocol: as §5

[9] = system: NB1; test: CellTiterGlo viability, neuroblastoma cell line; conditions: single agent, 2 days
Protocol: as §5

[10] = system: SK-N-FI; test: CellTiterGlo viability, neuroblastoma cell line; conditions: single agent, 2 days
Protocol: as §5

[11] = system: LAN-6; test: CellTiterGlo viability, neuroblastoma cell line; conditions: for Max Inh (Compound 3: Mean of Max Inh) / IC50: LAN-6, single agent, 3 days
Protocol: as §5

[12] = system: SK-N-AS; test: CellTiterGlo viability, neuroblastoma cell line; conditions: single agent, 3 days
Protocol: as §5

[13] = system: SK-N-BE; test: CellTiterGlo viability, neuroblastoma cell line; conditions: single agent, 3 days
Protocol: as §5

[14] = system: SH-SY5Y; test: CellTiterGlo viability, neuroblastoma cell line; conditions: single agent, 2 days
Protocol: as §5

[15] = system: SK-N-SH; test: CellTiterGlo viability, neuroblastoma cell line; conditions: single agent, 2 days
Protocol: as §5

[16] = system: SK-N-DZ; test: CellTiterGlo viability, neuroblastoma cell line; conditions: single agent, 3 days
Protocol: as §5

[17] = system: Kelly; test: CellTiterGlo viability, neuroblastoma cell line; conditions: single agent, 2 days
Protocol: as §5

[18] = system: HT; test: CellTiterGlo viability, DLBCL cell line; conditions: single agent, 2 days; for IC50: read-out: Abs IC50
Protocol: as §6, §7, §8, §9, §10

[19] = system: NU-DHL-1; test: CellTiterGlo viability, DLBCL cell line; conditions: single agent, 2 days; for IC50: read-out: Abs IC50
Protocol: as §6, §11, §8, §9, §12

Compound | IC50 [2] | IC50 [3] | Max Inh [4] | Max Inh [5] | Max Inh [6] | Max Inh (Compound 3: Mean of Max Inh) [7] | Max Inh (Compound 3: Mean of Max Inh) [8] | Max Inh (Compound 3: Mean of Max Inh) [9] | Max Inh (Compound 3: Mean of Max Inh) [10] | Max Inh (Compound 3: Mean of Max Inh) [11] | Max Inh (Compound 3: Mean of Max Inh) [12] | Max Inh (Compound 3: Mean of Max Inh) [13] | Max Inh (Compound 3: Mean of Max Inh) [14] | Max Inh (Compound 3: Mean of Max Inh) [15] | Max Inh (Compound 3: Mean of Max Inh) [16] | Max Inh (Compound 3: Mean of Max Inh) [17] | Max Inh [18] | Max Inh [19] | further results
Cl.O=C(c1cc(-c2cc3c(cc2C(=O)N2Cc4ccccc4C[C@H]2CN2CCOCC2)OCO3)n2c1CCCC2)N(c1ccccc1)c1ccc(O)cc1 [Compound 1, HCl, N-(4-hydroxyphenyl)-3-{6-[((3S)-3-(4-morpholinylmethyl)-3,4-dihydro-2(1H)-isoquinolinyl)carbonyl]-1,3-benzodioxol-5-yl}-N-phenyl-5,6,7,8-tetrahydro-1-indolizine carboxamide hydrochloride] | 19 nM | 17 µM | 99.1% | 101.9% | 100.1% | 48.5% | 10% | 11% | 6% | 26% | 9% | 27% | 10% | 15% | 10% | 27% | 37.2% | 102.1% | IC50 ([1]; Homo sapiens): 19 nM; IC50 ([4]; Homo sapiens, 48 h): 697 nM; IC50 ([5]; Homo sapiens, 48 h): 156 nM; IC50 ([6]; Homo sapiens, OCI-LY19, 48 h): 89.5 nM; IC50 ([7]; Neuroblastoma cell, 72 h): > 2000 nM; IC50 ([8]; Neuroblastoma cell, 72 h): > 2000 nM; IC50 ([9]; Homo sapiens, 48 h): > 3000 nM; IC50 ([10]; Homo sapiens, 48 h): > 3000 nM; IC50 ([11]; Neuroblastoma cell, 72 h): > 2000 nM; inhibition at 0.63 µM ([11]; Neuroblastoma cell, LAN-6 cells, each compound at 630 nM (FIG. 10, upper left panel), read-out: growth inhibition): 0%; IC50 ([12]; Homo sapiens, 72 h): > 1000 nM; IC50 ([13]; Neuroblastoma cell, 72 h): > 2000 nM; IC50 ([14]; Homo sapiens, 48 h): > 3000 nM; IC50 ([15]; Homo sapiens, 48 h): > 3000 nM; IC50 ([16]; Homo sapiens, 72 h): > 2000 nM; IC50 ([17]; 48 h): > 3000 nM; IC50 ([18]; Homo sapiens, 48 h): ≥ 10000 nM; IC50 ([19]; Homo sapiens, 48 h): 51.5 nM
COc1ccccc1-c1nccc(COc2ccccc2C[C@@H](Oc2ncnc3sc(-c4ccc(F)cc4)c(-c4ccc(OCCN5CCN(C)CC5)c(Cl)c4C)c23)C(=O)O)n1 [Compound 3, (2R)-2-{[(5Sa)-5-{3-chloro-2-methyl-4-[2-(4-methylpiperazin-1-yl)ethoxy]phenyl}-6-(4-fluorophenyl)thieno[2,3-d]pyrimidin-4-yl]oxy}-3-(2-{[2-(2-methoxyphenyl)pyrimidin-4-yl]methoxy}phenyl)propanoic acid] | 24 nM | 6.54 µM | 99.7% | 98.3% | 98.5% | 0% | 13% | 99% | 33% | 17.5% | 84% | 27% | 24% | 40% | 2.5% | 99% | 99.3% | 98.1% | IC50 [1]: 63 nM; IC50 [4]: 58.8 nM; IC50 [5]: 1.22 nM; IC50 [6]: 60.4 nM; IC50 [7]: > 2000 nM; IC50 [8]: > 2000 nM; IC50 [9]: 123 nM; IC50 [10]: > 3000 nM; IC50 [11]: > 2000 nM; growth inhibition ([11]; LAN-6 cells, each compound at 630 nM (FIG. 10, upper left panel)): 12%; IC50 [12]: 260 nM; IC50 [13]: > 2000 nM; IC50 [14]: > 3000 nM; IC50 [15]: > 3000 nM; IC50 [16]: > 2000 nM; IC50 [17]: 31 nM; IC50 [18]: 6.38 nM; IC50 [19]: 57.9 nM

From patent publication US20190240225A1, “COMBINATION OF A BCL-2 INHIBITOR AND A MCL-1 INHIBITOR, USES AND PHARMACEUTICAL COMPOSITIONS THEREOF” (LES LABORATOIRES SERVIER, priority 2016, published 2019)
